Reference: US9580473B2, “Method of inhibiting HIV-1 binding to genital epithelia using V3 loop-specific peptides and GP340-specific antibodies” (priority 2006, dated 2017)

Experiments:
HIV strain BL2 = assay: Trans-infection assay, AGS cells expressing endogenous gp-340 to T cell blasts; type: cell-based, HIV-1; settings: peptide 10 μg/ml, 15 min preincubation, p24 7 days later
Description: FIG. 2 Transmission of HIV by AGS cells expressing endogenous gp-340 is inhibited by peptide corresponding to the V3 domain of Env. AGS cells were preincubated with gp-340-specific peptide 6283 or 6284, and control peptide 6220 (10 μg/ml) for 15 min and then pulsed with decreasing amounts of HIV strain BL2. After viral exposure, the cells were washed four times to remove unbound virus and cocultured with T cell blasts in the absence of peptides for 24 h. The T cell blasts were then moved to new wells and p24 Gag antigen content was measured 7 days later. IUs were calculated using PHA-blasts as target cells in a TCID50 assay. Experiment was performed in replicates of six per virus concentration. Data is expressed as the percentage of the 6 wells in which the cells became infected for each virus concentration.
(§1) Parental or gp-340 expressing 293 cells, VK2E6E7, Endo1E6E7, Ect1E6E7, or AGS cells or 1 mm^3 pieces of ectocervix obtained as described below seeded in 96 well plates were incubated with various IU inputs of HIV, in 100 μl final volume for 2 h at 37° C. and then extensively washed. Additional inhibitors, peptides or antibodies, were added to cells 30 min prior to pulsing with virus and replaced after cells were washed. Plates were centrifuged at 1250 rpm for 7 minutes between each wash. After viral incubation and washing, PHA-blasts were cocultured with the pulsed cells for 7 days at 37° C. with IL-2. Infection was monitored by measuring supernatant-associated p24 Gag protein content on day 7. TCID50 was calculated using the Reed-Münch formula.
To examine native expressed gp-340, the gastrointestinal carcinoma cell line AGS, which is expresses gp-340, was analyzed for its ability to transmit HIV in vitro. AGS cells enhanced transmission of HIV to target CD4^+ T cells. Cells were infected in 50% of the wells when 0.08 infectious units (IU) of virus were pulsed per well. This represented a 6-fold enhancement in the viral infectivity by gp-340. Peptides 6283 and 6284, derived from the proposed gp-340 binding site in Env, abolished the enhancement in infectivity. […]

HIV-1 BL2 virus = assay: Trans-infection assay, vaginal epithelial cells (VK2E6E7) to PHA-blasts; type: cell-based; settings: pre-incubation with antibody, or peptide at time of viral pulsing; p24 after 7 days
Description: Vaginal epithelial cells (VK2E6E7) were incubated with isotype control or gp-340-specific antibodies 116 or DAPA and then pulsed with HIV-1 BL2 virus. After extensive washing, PHA-blasts were added for 24 h and then moved to new plates without VK2E6E7 cells. After 7 days, p24 Gag protein content in the supernatant was measured. Samples were run in triplicate and standard error of the mean is given.
as §1
Cell lines were pulsed with decreasing amounts of HIV Ba-L, washed and had target cells immediately added or added after 2 or 4 days of culture. […]

gp-340 = gp-340 (Homo sapiens, UniProt Q9UGM3); settings: previously shown/demonstrated; cited from earlier work
gp-340, sequence (Q9UGM3 20-2413): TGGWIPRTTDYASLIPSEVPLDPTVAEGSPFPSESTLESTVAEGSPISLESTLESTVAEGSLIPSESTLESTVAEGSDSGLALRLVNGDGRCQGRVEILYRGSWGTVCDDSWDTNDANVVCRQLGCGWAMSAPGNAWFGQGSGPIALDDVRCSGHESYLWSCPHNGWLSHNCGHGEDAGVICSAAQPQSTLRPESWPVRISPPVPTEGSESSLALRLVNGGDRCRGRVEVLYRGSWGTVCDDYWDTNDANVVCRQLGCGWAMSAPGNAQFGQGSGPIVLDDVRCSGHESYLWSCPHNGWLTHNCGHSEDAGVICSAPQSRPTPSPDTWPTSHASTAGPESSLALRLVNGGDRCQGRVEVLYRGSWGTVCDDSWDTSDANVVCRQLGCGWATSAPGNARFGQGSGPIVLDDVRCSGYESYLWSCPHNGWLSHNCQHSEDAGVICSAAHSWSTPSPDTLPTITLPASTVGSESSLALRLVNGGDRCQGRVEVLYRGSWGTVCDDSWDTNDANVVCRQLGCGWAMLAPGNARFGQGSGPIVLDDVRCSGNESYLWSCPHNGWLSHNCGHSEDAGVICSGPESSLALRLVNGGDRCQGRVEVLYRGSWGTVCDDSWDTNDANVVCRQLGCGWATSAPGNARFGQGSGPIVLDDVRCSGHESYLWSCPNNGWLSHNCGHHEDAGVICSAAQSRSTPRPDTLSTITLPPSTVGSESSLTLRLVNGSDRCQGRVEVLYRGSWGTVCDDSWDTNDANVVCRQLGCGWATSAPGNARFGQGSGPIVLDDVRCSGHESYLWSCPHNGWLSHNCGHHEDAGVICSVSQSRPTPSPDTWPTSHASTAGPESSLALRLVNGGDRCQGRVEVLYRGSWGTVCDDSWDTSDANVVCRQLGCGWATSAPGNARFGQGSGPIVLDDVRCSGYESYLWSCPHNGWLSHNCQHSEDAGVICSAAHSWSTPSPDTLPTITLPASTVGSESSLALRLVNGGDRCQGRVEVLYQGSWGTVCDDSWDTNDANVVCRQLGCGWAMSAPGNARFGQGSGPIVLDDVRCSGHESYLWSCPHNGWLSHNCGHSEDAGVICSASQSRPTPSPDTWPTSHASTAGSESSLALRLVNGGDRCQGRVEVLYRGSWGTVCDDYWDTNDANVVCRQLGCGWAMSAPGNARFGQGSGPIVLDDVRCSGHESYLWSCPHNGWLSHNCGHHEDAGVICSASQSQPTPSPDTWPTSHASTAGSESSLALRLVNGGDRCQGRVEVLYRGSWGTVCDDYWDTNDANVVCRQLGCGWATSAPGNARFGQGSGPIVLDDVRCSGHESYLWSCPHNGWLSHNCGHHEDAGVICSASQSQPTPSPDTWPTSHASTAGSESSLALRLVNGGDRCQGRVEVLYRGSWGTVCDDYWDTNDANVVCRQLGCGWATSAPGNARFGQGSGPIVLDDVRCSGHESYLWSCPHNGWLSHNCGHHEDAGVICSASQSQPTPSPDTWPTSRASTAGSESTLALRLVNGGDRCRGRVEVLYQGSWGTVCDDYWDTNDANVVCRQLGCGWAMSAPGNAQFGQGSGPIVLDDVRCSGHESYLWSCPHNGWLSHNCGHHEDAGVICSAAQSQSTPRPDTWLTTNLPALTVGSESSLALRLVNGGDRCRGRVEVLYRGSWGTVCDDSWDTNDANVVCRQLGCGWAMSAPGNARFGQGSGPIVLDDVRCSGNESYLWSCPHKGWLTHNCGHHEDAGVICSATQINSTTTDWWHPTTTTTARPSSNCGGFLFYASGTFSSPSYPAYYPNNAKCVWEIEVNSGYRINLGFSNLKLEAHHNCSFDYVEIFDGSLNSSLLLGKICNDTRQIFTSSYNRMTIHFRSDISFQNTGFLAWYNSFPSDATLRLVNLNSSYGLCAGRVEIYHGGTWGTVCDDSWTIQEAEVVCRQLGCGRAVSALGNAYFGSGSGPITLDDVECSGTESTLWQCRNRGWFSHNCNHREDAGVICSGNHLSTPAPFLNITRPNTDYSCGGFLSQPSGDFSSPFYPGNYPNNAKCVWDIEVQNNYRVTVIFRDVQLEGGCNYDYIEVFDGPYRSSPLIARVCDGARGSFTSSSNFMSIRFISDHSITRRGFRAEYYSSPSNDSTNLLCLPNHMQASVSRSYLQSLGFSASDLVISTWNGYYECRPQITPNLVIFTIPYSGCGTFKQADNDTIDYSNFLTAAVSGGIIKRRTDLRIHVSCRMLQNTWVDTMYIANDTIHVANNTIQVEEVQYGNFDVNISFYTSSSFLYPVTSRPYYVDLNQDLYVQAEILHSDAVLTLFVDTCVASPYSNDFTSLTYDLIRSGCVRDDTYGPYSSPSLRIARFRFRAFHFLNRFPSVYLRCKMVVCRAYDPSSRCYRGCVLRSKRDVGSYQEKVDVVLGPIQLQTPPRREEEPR

[1] = tested on: HIV (primary M-tropic strain BL2); assay: Trans-infection assay, 293 clone 1D4 stably expressing gp-340 pulsed with HIV, cocultured with PHA-blasts; type: cell-based, HIV-1; settings: for mean P24, transmission by clone 1D4 in presence of peptide: average of 6 wells
Description: FIG. 1. 293 cells stably expressing cell surface gp-340 enhance the transfer of HIV to target cells. (A) 293 cells and a clone, 1D4, stably expressing gp-340, were stained for surface expression of gp-340 using rabbit polyclonal antibody 1527. Isotype control stained cells shown are 293 cells, but the 1D4 clone gave the same pattern. (B) Clone 1D4 and 293 cells were pulsed with increasing IU of HIV BL2 virus with or without a V3-derived peptide 6284 (10 μg/ml) that blocks Env-gp-340 binding, washed and exposed to PHA-blasts for 7 days. IUs were calculated using PHA-blasts as target cells in a TCID50 assay. Experiment was performed in replicates of 6 wells per viral addition and data is expressed as the percentage of the wells that became infected.
as §1, with “After viral incubation and washing, PHA-blasts were cocultured with the pulsed cells for 7 days at 37° C. with IL-2.” left out
Secreted gp-340 found at high levels in the oral cavity and also exists in a cell surface-associated form, although mRNA containing exon 55, which encodes the putative transmembrane domain, has not yet been detected. […] The gp-340 expressing cell lines were measured for their ability to transmit cell-free HIV to human PHA- and IL-2-stimulated PBMCs (PHA-blasts). […] Infection was monitored by p24 Gag protein content in the culture supernatant in each well and scored for the presence or absence of infection. The assay used 6 replicates of cells for each viral dilution and condition and calculated the number of wells that became infected at each amount of added virus. […]

HIV [2] = assay: Direct HIV infection of PHA-blasts with peptide added before HIV; type: cell-based, HIV-1; settings: peptide added to PHA-blasts prior to HIV
HIV [3] = assay: Trans-infection by genital tract epithelial cell lines; type: cell-based; settings: treatment completely removes syndecan expression

KEATTTLFCASDAKA (Human) [peptide 6220, control peptide derived from another part of Env, reference compound]
enhancement in infectivity (transmission of HIV by AGS cells) (HIV strain BL2): had no impact

VQINCTRPNYNKRKR [peptide 6283]
enhancement in infectivity (transmission of HIV by AGS cells) (HIV strain BL2): abolished

DAPA
ability of VK2E6E7 cells to bind and transmit HIV to PHA-blasts (HIV-1 BL2 virus): markedly decreased | Env binding to gp-340 (gp-340): inhibit

CTRPNYNKRKRIHIG [peptide 6284]
mean P24, transmission by clone 1D4 in presence of peptide ([1]; 0.11 IU viral input, without peptide 184): 7 | mean P24, transmission by clone 1D4 in presence of peptide ([1]; 0.33 IU viral input, without peptide 239): 7 | enhancement of HIV trans-infection (TCID50) by gp-340-expressing cells ([1]; gp-340-expressing 293 cells pre-incubated with peptide 10 μg/ml, HIV BL2, PHA-blasts 7 days): abolished | infection of PHA-blasts (HIV [2]): did not affect | enhancement in infectivity (transmission of HIV by AGS cells) (HIV strain BL2): abolished | Env binding to gp-340 (gp-340): block

B1: heparinase: enzyme treatment that completely removes syndecan expression (protein, UniProt Q59289 25-659, looked up)
Heparin-sulfate lyase: QSSSITRKDFDHINLEYSGLEKVNKAVAAGNYDDAAKALLAYYREKSKAREPDFSNAEKPADIRQPIDKVTREMADKALVHQFQPHKGYGYFDYGKDINWQMWPVKDNEVRWQLHRVKWWQAMALVYHATGDEKYAREWVYQYSDWARKNPLGLSQDNDKFVWRPLEVSDRVQSLPPTFSLFVNSPAFTPAFLMEFLNSYHQQADYLSTHYAEQGNHRLFEAQRNLFAGVSFPEFKDSPRWRQTGISVLNTEIKKQVYADGMQFELSPIYHVAAIDIFLKAYGSAKRVNLEKEFPQSYVQTVENMIMALISISLPDYNTPMFGDSWITDKNFRMAQFASWARVFPANQAIKYFATDGKQGKAPNFLSKALSNAGFYTFRSGWDKNATVMVLKASPPGEFHAQPDNGTFELFIKGRNFTPDAGVFVYSGDEAIMKLRNWYRQTRIHSTLTLDNQNMVITKARQNKWETGNNLDVLTYTNPSYPNLDHQRSVLFINKKYFLVIDRAIGEATGNLGVHWQLKEDSNPVFDKTKNRVYTTYRDGNNLMIQSLNADRTSLNEEEGKVSYVYNKELKRPAFVFEKPKKNAGTQNFVSIVYPYDGQKAPEISIRENKGNDFEKGKLNLTLTINGKQQLVLVP
trans-infection after heparinase treatment (HIV [3]): no effect
